In assay [1] the test system is CX-1 Human Colon Carcinoma. Nature of the assay: In vitro IC50, adhering monolayer culture, neutral red staining, inhibition of cell growth. The format is cell-based. Conditions: 3 hours drug exposure under red light, then about 7 days growth (four cell-doubling times), neutral red absorbence at 540 nm, read-out: IC₅₀ CX-1 Human Colon Carcinoma. The text has this: (§1) The following is the procedure carried out in ascertaining the IC₅₀ concentrations of the thiorhodamines of this invention. (IC₅₀ is the in vitro molar concentration that inhibits 50% of tumor growth. The smaller the concentration, the higher the toxicity.):
(§2) For the IC₅₀ values for the human colon carcinoma and the human lung carcinoma lines, an adhering monolayer culture was used. Two days prior to plating, a number of cells obtained from the American Type Tissue Culture Collection was selected to grow as a stock, the number being that which would ensure the cells had not reached their plateau at the time of the in vitro test. On day 1 of the assay, asynchronous exponentially growing cells from this stock were suspended in a conventional complete medium comprising RPMI 1640 medium supplemented with 5% (v/v) fetal calf serum and 5% (v/v) NU serum obtained from Collaborative Research, and 20mM HEPES buffer, i.e., 4-(2-hydroxyethyl)-1-piperazineethanesulfonic acid. This was plated into a conventional 96-well tissue culture plate using a Cetus/Perkin Elmer automated pipetting device equipped with a dual supply manifold. The cells were then incubated for 48 hours at 37°C in a humidified atmosphere containing 5% CO₂. The cells were then incubated under red light for 3 hours in the presence of varying amounts of the compound of interest at 37°C in a humidified incubator containing 5% CO₂. Compounds were tested over a 6-log range of concentrations. After 3 hours the drug treated cells were then rinsed one time with complete medium as set forth above, and incubated in the complete medium the length of time appropriate to achieve four cell-doubling times (roughly 7 days for these cell lines). The medium was removed and the cells stained for 1-2 hours at 37°C with 0.1% (w/v) neutral red dye obtained from Eastman Kodak Co., dissolved in phosphate buffered saline (PBS) (without calcium or magnesium cations) at a pH of 6.85. The cells were rinsed twice with the same PBS and dried. Excess neutral red dye was eluted from each well with 50% (v/v) ethanol in 1% (v/v) glacial acetic acid. The absorbence of each well was quantitated using a Perkin-Elmer absorbence densitometer set at 540 nm. The % of inhibition of cell growth for a given concentration of compound was calculated using the equation: [formula] where At = absorbence of the cells treated with the candidate drug, Au = absorbence of the control treated with solvent only, and Ab = absorbence of the media and well only (background). […] The plotted data was then fitted to the curve for the function: F(x) = 100 - [100(X/A)^B/(1+(X/A)^B)] where x = the concentration of the test compound, A = the IC₅₀ value (50% inhibition on the plot) and B=the exponent of the fitted function. […]

Assay [2] concerns A549 Human Lung Carcinoma. The description is as above. Conditions: 3 hours drug exposure under red light, then about 7 days growth (four cell-doubling times), neutral red absorbence at 540 nm, read-out: IC₅₀ A549 Human Lung Carcinoma. In kind it is cell-based.
From the text: as §1, §2

For the molecule `COC(=O)c1ccccc1-c1c2ccc(=N)cc-2oc2cc(N)ccc12` [Rhodamine 123], the IC50 in assay [1] and in assay [2] was > 12500 nM in each case.
As for `COC(=O)c1ccccc1-c1c2ccc(N(C)C)cc2[s+]c2cc(N(C)C)ccc12` [Prep. 4, 3,6-bis(dimethylamino)-9-(2-methoxycarbonylphenyl)thioxanthylium chloride], the IC50 in assay [1] and in assay [2] was 810 nM throughout.
